Source: US12503469B2, “Forms of methyl {4,6-diamino-2-[1-(2-fluorobenzyl)-1H-pyrazolo[3-4-b]pyridino-3-yl]pyrimidino-5-yl} methyl carbamate” (Adverio Pharma GmbH, priority 2013, dated 2025)

Assay: Solid-state stability of the forms of the compound of formula (I)
Format: physicochemical

SMILES: COC(=O)N(C)c1c(N)nc(-c2nn(Cc3ccccc3F)c3ncccc23)nc1N [Modification I, methyl {4,6-diamino-2-[1-(2-fluorobenzyl)-1H-pyrazolo[3,4-b]pyridino-3-yl]pyrimidino-5-yl}methylcarbamate]
- thermodynamic stability of the form (between 0° C. and 80° C.): thermodynamically stable form between 0 °C and 80 °C

SMILES: COC(=O)N(C)c1c(N)nc(-c2nn(Cc3ccccc3F)c3ncccc23)nc1N [amorphous form, methyl {4,6-diamino-2-[1-(2-fluorobenzyl)-1H-pyrazolo[3,4-b]pyridin-3-yl]pyrimidin-5-yl}methylcarbamate]
- stability of the amorphous form against crystallization (room temperature): can exist at room temperature, but crystallizes very quickly
